# Assay results published in patent US12421210B2, “Fused bicyclic heterocycles as therapeutic agents” (NEW YORK UNIVERSITY, priority 2018, dated 2025).
# Target: human NAMPT enzyme (His-hNAMPT) (Homo sapiens (Human), UniProt P43490)
# Experiment: NAMPT enzymatic inhibition assay (fluorescence, NADH product)
# Assay type: biochemical
# Details: [BPS]; read-out: NAMPT IC50 (μM) [BPS]
# human NAMPT enzyme (His-hNAMPT), sequence (P43490 whole entry): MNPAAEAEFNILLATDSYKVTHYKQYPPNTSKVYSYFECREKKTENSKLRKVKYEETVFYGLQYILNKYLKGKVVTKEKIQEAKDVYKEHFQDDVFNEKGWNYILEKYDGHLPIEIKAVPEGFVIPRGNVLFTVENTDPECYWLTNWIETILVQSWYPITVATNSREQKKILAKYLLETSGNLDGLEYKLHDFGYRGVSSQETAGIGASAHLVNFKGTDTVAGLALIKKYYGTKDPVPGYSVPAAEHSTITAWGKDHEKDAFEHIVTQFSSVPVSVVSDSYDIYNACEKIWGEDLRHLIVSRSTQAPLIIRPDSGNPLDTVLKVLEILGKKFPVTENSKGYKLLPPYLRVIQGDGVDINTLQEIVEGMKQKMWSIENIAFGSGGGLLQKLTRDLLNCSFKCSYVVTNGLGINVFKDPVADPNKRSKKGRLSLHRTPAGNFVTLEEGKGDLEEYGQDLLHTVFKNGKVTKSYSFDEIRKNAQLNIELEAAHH
row,SMILES,IC50
1,"O=C(/C=C/c1cccnc1)NCC[C@@H]1[C@H]2CN(c3ncccn3)C[C@@H]12 [Example 123, (E)-3-(pyridin-3-yl)-N-(2-((1R,5S,6s)-3-(pyrimidin-2-yl)-3-azabicyclo[3.1.0]hexan-6-yl)ethyl)acrylamide]",0.01 to 0.49 µM
2,"O=C(/C=C/c1cccnc1)NCC[C@@H]1[C@H]2CN(c3nc4ccccc4s3)C[C@@H]12 [Example 124, (E)-N-(2-((1R,5S,6s)-3-(benzo[d]thiazol-2-yl)-3-azabicyclo[3.1.0]hexan-6-yl)ethyl)-3-(pyridin-3-yl)acrylamide]",0.01 to 0.49 µM
3,"O=C(/C=C/c1cccnc1)NCC[C@@H]1[C@H]2CN(c3cccc4ccccc34)C[C@@H]12 [Example 126, (E)-N-(2-((1R,5S,6s)-3-(naphthalen-1-yl)-3-azabicyclo[3.1.0]hexan-6-yl)ethyl)-3-(pyridin-3-yl)acrylamide]",0.01 to 0.49 µM
4,"O=C(/C=C/c1cccnc1)NCC[C@@H]1[C@H]2CN(c3ccc4ccccc4c3)C[C@@H]12 [Example 127, (E)-N-(2-((1R,5S,6s)-3-(naphthalen-2-yl)-3-azabicyclo[3.1.0]hexan-6-yl)ethyl)-3-(pyridin-3-yl)acrylamide]",0.01 to 0.49 µM
5,"O=C(/C=C/c1cccnc1)NCC[C@@H]1[C@H]2CN(c3cccc(F)c3)C[C@@H]12 [Example 128, (E)-N-(2-((1R,5S,6s)-3-(3-fluorophenyl)-3-azabicyclo[3.1.0]hexan-6-yl)ethyl)-3-(pyridin-3-yl)acrylamide]",0.01 to 0.49 µM
6,"COc1cccc(N2C[C@@H]3[C@@H](CCNC(=O)/C=C/c4cccnc4)[C@@H]3C2)c1 [Example 129, (E)-N-(2-((1R,5S,6s)-3-(3-methoxyphenyl)-3-azabicyclo[3.1.0]hexan-6-yl)ethyl)-3-(pyridin-3-yl)acrylamide]",0.01 to 0.49 µM
7,"COc1cccc(N2C[C@@H]3[C@@H](CCNC(=O)c4cc5ccncc5o4)[C@@H]3C2)c1 [Example 130, N-(2-((1R,5S,6s)-3-(3-methoxyphenyl)-3-azabicyclo[3.1.0]hexan-6-yl)ethyl)furo[2,3-c]pyridine-2-carboxamide]",0.01 to 0.49 µM
8,"O=C(NCC[C@@H]1[C@H]2CN(c3ncccn3)C[C@@H]12)c1cc(-c2cccnc2)on1 [Example 131, 5-(pyridin-3-yl)-N-(2-((1R,5S,6s)-3-(pyrimidin-2-yl)-3-azabicyclo[3.1.0]hexan-6-yl)ethyl)isoxazole-3-carboxamide]",0.01 to 0.49 µM
9,"Cc1cccc(C)c1N1C[C@@H]2[C@@H](CCNC(=O)/C=C/c3cccnc3)[C@@H]2C1 [Example 133, (E)-N-(2-((1R,5S,6s)-3-(2,6-dimethylphenyl)-3-azabicyclo[3.1.0]hexan-6-yl)ethyl)-3-(pyridin-3-yl)acrylamide]",0.01 to 0.49 µM

# Continued, values first:
row,IC50,SMILES
1,0.01 to 0.49 µM,"O=C(NCC[C@@H]1[C@H]2CN(c3ncc4ccccc4n3)C[C@@H]12)c1cc2ccncc2o1 [Example 122, N-(2-((1R,5S,6s)-3-(quinazolin-2-yl)-3-azabicyclo[3.1.0]hexan-6-yl)ethyl)furo[2,3-c]pyridine-2-carboxamide]"
2,0.01 to 0.49 µM,"O=C(/C=C/c1cccnc1)NCC[C@@H]1[C@H]2CN(c3ncc4ccccc4n3)C[C@@H]12 [Example 125, (E)-3-(pyridin-3-yl)-N-(2-((1R,5S,6s)-3-(quinazolin-2-yl)-3-azabicyclo[3.1.0]hexan-6-yl)ethyl)acrylamide]"
3,0.01 to 0.49 µM,"Cc1ccccc1N1C[C@@H]2[C@@H](CCNC(=O)/C=C/c3cccnc3)[C@@H]2C1 [Example 132, (E)-3-(pyridin-3-yl)-N-(2-((1R,5S,6s)-3-(o-tolyl)-3-azabicyclo[3.1.0]hexan-6-yl)ethyl)acrylamide]"

# Same assay, conditions: [HDB]; read-out: NAMPT IC50 (μM) [HDB]
row,SMILES,IC50
1,"O=C(NCC[C@@H]1[C@H]2CN(c3ccccc3)C[C@@H]12)c1cc(-c2cccnc2)on1 [Example 134, N-(2-((1R,5S,6s)-3-phenyl-3-azabicyclo[3.1.0]hexan-6-yl)ethyl)-5-(pyridin-3-yl)isoxazole-3-carboxamide]",< 0.01 µM
2,"N#Cc1cccc(N2C[C@@H]3[C@@H](CCNC(=O)/C=C/c4cccnc4)[C@@H]3C2)c1 [Example 136, (E)-N-(2-((1R,5S,6s)-3-(3-cyanophenyl)-3-azabicyclo[3.1.0]hexan-6-yl)ethyl)-3-(pyridin-3-yl)acrylamide]",< 0.01 µM
3,"N#Cc1ccc(N2C[C@@H]3[C@@H](CCNC(=O)/C=C/c4cccnc4)[C@@H]3C2)cc1 [Example 137, (E)-N-(2-((1R,5S,6s)-3-(4-cyanophenyl)-3-azabicyclo[3.1.0]hexan-6-yl)ethyl)-3-(pyridin-3-yl)acrylamide]",0.01 to 0.49 µM
4,"O=C(/C=C/c1cccnc1)NCC[C@@H]1[C@H]2CN(c3cccc(C(F)(F)F)c3)C[C@@H]12 [Example 138, (E)-3-(pyridin-3-yl)-N-(2-((1R,5S,6s)-3-(3-(trifluoromethyl)phenyl)-3-azabicyclo[3.1.0]hexan-6-yl)ethyl)acrylamide]",0.01 to 0.49 µM
5,"O=C(/C=C/c1cccnc1)NCC[C@@H]1[C@H]2CN(c3ccccc3C(F)(F)F)C[C@@H]12 [Example 140, (E)-3-(pyridin-3-yl)-N-(2-((1R,5S,6S)-3-(2-(trifluoromethyl)phenyl)-3-azabicyclo[3.1.0]hexan-6-yl)ethyl)acrylamide]",0.01 to 0.49 µM
6,"O=C(/C=C/c1cccnc1)NCC[C@@H]1[C@H]2CN(c3ccc4ccncc4c3)C[C@@H]12 [Example 141, (E)-N-(2-((1R,5S,6s)-3-(isoquinolin-7-yl)-3-azabicyclo[3.1.0]hexan-6-yl)ethyl)-3-(pyridin-3-yl)acrylamide]",< 0.01 µM
7,"O=C(/C=C/c1cccnc1)NCC[C@@H]1[C@H]2CN(c3ccc4cnccc4c3)C[C@@H]12 [Example 142, (E)-N-(2-((1R,5S,6s)-3-(isoquinolin-6-yl)-3-azabicyclo[3.1.0]hexan-6-yl)ethyl)-3-(pyridin-3-yl)acrylamide]",< 0.01 µM
8,"O=C(/C=C/c1cccnc1)NCC[C@@H]1[C@H]2CN(c3ccnc4ccccc34)C[C@@H]12 [Example 143, (E)-3-(pyridin-3-yl)-N-(2-((1R,5S,6s)-3-(quinolin-4-yl)-3-azabicyclo[3.1.0]hexan-6-yl)ethyl)acrylamide]",0.01 to 0.49 µM
9,"O=C(/C=C/c1cccnc1)NCC[C@@H]1[C@H]2CN(c3ccccc3Cl)C[C@@H]12 [Example 144, (E)-N-(2-((1R,5S,6s)-3-(2-chlorphenyl)-3-azabicyclo[3.1.0]hexan-6-yl)ethyl)-3-(pyridin-3-yl)acrylamide]",0.01 to 0.49 µM
10,"O=C(/C=C/c1cccnc1)NCC[C@@H]1[C@H]2CN(c3cc(Cl)ccc3F)C[C@@H]12 [Example 150, (E)-N-(2-((1R,5S,6s)-3-(5-chloro-2-flurophenyl)-3-azabicyclo[3.1.0]hexan-6-yl)ethyl)-3-(pyridin-3-yl)acrylamide]",0.01 to 0.49 µM
11,"CS(=O)(=O)c1cccc(N2C[C@@H]3[C@@H](CCNC(=O)/C=C/c4cccnc4)[C@@H]3C2)c1 [Example 152, (E)-N-(2-((1R,5S,6s)-3-(3-(methylsulfonyl)phenyl)-3-azabicyclo[3.1.0]hexan-6-yl)ethyl)-3-(pyridin-3-yl)acrylamide]",0.01 to 0.49 µM
12,"O=C(/C=C/c1cccnc1)NCC[C@@H]1[C@H]2CN(c3ccc(F)c(Cl)c3)C[C@@H]12 [Example 153, (E)-N-(2-((1R,5S,6s)-3-(3-chloro-4-fluorophenyl)-3-azabicyclo[3.1.0]hexan-6-yl)ethyl)-3-(pyridin-3-yl)acrylamide]",0.01 to 0.49 µM
13,"O=C(/C=C/c1cccnc1)NCC[C@@H]1[C@H]2CN(c3ccncc3)C[C@@H]12 [Example 154, (E)-3-(pyridin-3-yl)-N-(2-((1R,5S,6s)-3-(pyridin-4-yl)-3-azabicyclo[3.1.0]hexan-6-yl)ethyl)acrylamide]",0.01 to 0.49 µM
14,"CC(C)(C)c1cccc(N2C[C@@H]3[C@@H](CCNC(=O)/C=C/c4cccnc4)[C@@H]3C2)c1 [Example 155, (E)-N-(2-((1R,5S,6s)-3-(3-(tert-butyl)phenyl)-3-azabicyclo[3.1.0]hexan-6-yl)ethyl)-3-(pyridin-3-yl)acrylamide]",0.01 to 0.49 µM

# Now from value to molecule:
row,IC50,SMILES
1,0.01 to 0.49 µM,"N#Cc1ccccc1N1C[C@@H]2[C@@H](CCNC(=O)/C=C/c3cccnc3)[C@@H]2C1 [Example 135, (E)-N-(2-((1R,5S,6s)-3-(2-cyanophenyl)-3-azabicyclo[3.1.0]hexan-6-yl)ethyl)-3-(pyridin-3-yl)acrylamide]"
2,0.01 to 0.49 µM,"O=C(/C=C/c1cccnc1)NCC[C@@H]1[C@H]2CN(c3ccc(C(F)(F)F)cc3)C[C@@H]12 [Example 139, (E)-3-(pyridin-3-yl)-N-(2-((1R,5S,6s)-3-(4-(trifluoromethyl)phenyl)-3-azabicyclo[3.1.0]hexan-6-yl)ethyl)acrylamide]"
3,0.01 to 0.49 µM,"O=C(/C=C/c1cccnc1)NCC[C@@H]1[C@H]2CN(c3cccc(Cl)c3)C[C@@H]12 [Example 145, (E)-N-(2-((1R,5S,6s)-3-(3-chlorophenyl)-3-azabicyclo[3.1.0]hexan-6-yl)ethyl)-3-(pyridin-3-yl)acrylamide]"
4,0.01 to 0.49 µM,"O=C(/C=C/c1cccnc1)NCC[C@@H]1[C@H]2CN(c3ccc(Cl)cc3)C[C@@H]12 [Example 146, (E)-N-(2-((1R,5S,6s)-3-(4-chlorophenyl)-3-azabicyclo[3.1.0]hexan-6-yl)ethyl)-3-(pyridin-3-yl)acrylamide]"
5,< 0.01 µM,"O=C(/C=C/c1cccnc1)NCC[C@@H]1[C@H]2CN(c3ccc(Cl)c(Cl)c3)C[C@@H]12 [Example 147, (E)-N-(2-((1R,5S,6s)-3-(3,4-dichlorophenyl)-3-azabicyclo[3.1.0]hexan-6-yl)ethyl)-3-(pyridin-3-yl)acrylamide]"
6,< 0.01 µM,"O=C(/C=C/c1cccnc1)NCC[C@@H]1[C@H]2CN(c3cc(Cl)cc(Cl)c3)C[C@@H]12 [Example 148, (E)-N-(2-((1R,5S,6s)-3-(3,5-dichlorophenyl)-3-azabicyclo[3.1.0]hexan-6-yl)ethyl)-3-(pyridin-3-yl)acrylamide]"
7,0.01 to 0.49 µM,"O=C(/C=C/c1cccnc1)NCC[C@@H]1[C@H]2CN(c3cccnc3)C[C@@H]12 [Example 149, (E)-3-(pyridin-3-yl)-N-(2-((1R,5S,6s)-3-(pyridin-3-yl)-3-azabicyclo[3.1.0]hexan-6-yl)ethyl)acrylamide]"
8,< 0.01 µM,"CSc1cccc(N2C[C@@H]3[C@@H](CCNC(=O)/C=C/c4cccnc4)[C@@H]3C2)c1 [Example 151, (E)-N-(2-((1R,5S,6s)-3-(3-(methylthio)phenyl)-3-azabicyclo[3.1.0]hexan-6-yl)ethyl)-3-(pyridin-3-yl)acrylamide]"
